Results from patent US20210387978A1, “CYCLOBUTYL DIHYDROQUINOLINE SULFONAMIDE COMPOUNDS” (AMGEN INC., priority 2020, published 2021).

Columns and labels:
Human Nav1.7 = target: T1, Human Nav1.7 (Homo sapiens, UniProt Q15858); assay: IonWorks Barracuda (IWB) automated patch clamp assay; type: cell-based; conditions: human Nav1.7 currents, HEK cells, population patch-clamp, state- and use-dependent voltage protocol; read-out: hNaV1.7 IWB-U IC50
T1 construct: expressed in transfected cells; host or cells: Spiking HEK cells (without Kir2.1 transfection)
Protocol: Ionaworks Barracuda […] Automated Patch Clamp Assay (Same Protocol for Both Human and Mouse)
Human Nav1.7 currents were recorded in population patch-clamp mode with the IWB automated electrophysiology system (Molecular Devices, LLC, Sunnyvale, Calif.). Spiking HEK cells (without Kir2.1 transfection) were cultured and prepared for recordings as previously described for IonWorks Quattro testing^1. The external solution consisted of the following (in mM): NaCl 140, KCl 5, CaCl2 2, MgCl2 1, HEPES 10, and glucose 11, pH 7.4, with N-methyl-D-glucamine at 320 mOsmol. […] From a holding potential of −110 mV, currents were elicited by a train of 26 depolarizations of 150 ms duration to −20 mV at a frequency of 5 Hz. Cells were then clamped to −20 mV for a period of 4 minutes in the presence of a single concentration of test compound. Following this compound incubation period, cells were clamped to −110 mV for three seconds to recover unbound channels and put through the same 26 pulse voltage protocol as above. Peak inward current during the 26th pulse to −20 mV in the presence of compound was divided by the peak inward current evoked by the 26th pulse to −20 mV in the absence of compound to determine percent inhibition. Concentration-response curves of percent inhibition as a function of concentration were generated to calculate IC50 values as described in Kornecook, T. J.; Yin, R.; Altmann, S.; et al. Pharmacologic Characterization of AMG8379, a Potent and Selective Small Molecule Sulfonamide Antagonist of the Voltage-Gated Sodium Channel NaV1. 7.
The potency of the compounds of the present invention were evaluated on human Nav1.7 channels using the above described IonWorks Barracuda automated electrophysiology platform that evaluates the ability of compounds to block sodium conductance through Nav1.7 channels. A voltage-protocol that prosecutes both state-dependent as well as use-dependent inhibition was used as these modes of action are thought to be more relevant for the native state of Nav1.7 channels in pain sensing neurons in vivo.

CYP3A4 = assay: Human CYP 3A4 Induction Assay (mRNA, cryopreserved human hepatocytes); type: in vitro ADME; conditions: 10 uM test compound, 72 hours, percent of control (POC), rifampin positive control
From the text: Human CYP 3A4 Induction Assay

T1 sequence (Q15858 whole entry): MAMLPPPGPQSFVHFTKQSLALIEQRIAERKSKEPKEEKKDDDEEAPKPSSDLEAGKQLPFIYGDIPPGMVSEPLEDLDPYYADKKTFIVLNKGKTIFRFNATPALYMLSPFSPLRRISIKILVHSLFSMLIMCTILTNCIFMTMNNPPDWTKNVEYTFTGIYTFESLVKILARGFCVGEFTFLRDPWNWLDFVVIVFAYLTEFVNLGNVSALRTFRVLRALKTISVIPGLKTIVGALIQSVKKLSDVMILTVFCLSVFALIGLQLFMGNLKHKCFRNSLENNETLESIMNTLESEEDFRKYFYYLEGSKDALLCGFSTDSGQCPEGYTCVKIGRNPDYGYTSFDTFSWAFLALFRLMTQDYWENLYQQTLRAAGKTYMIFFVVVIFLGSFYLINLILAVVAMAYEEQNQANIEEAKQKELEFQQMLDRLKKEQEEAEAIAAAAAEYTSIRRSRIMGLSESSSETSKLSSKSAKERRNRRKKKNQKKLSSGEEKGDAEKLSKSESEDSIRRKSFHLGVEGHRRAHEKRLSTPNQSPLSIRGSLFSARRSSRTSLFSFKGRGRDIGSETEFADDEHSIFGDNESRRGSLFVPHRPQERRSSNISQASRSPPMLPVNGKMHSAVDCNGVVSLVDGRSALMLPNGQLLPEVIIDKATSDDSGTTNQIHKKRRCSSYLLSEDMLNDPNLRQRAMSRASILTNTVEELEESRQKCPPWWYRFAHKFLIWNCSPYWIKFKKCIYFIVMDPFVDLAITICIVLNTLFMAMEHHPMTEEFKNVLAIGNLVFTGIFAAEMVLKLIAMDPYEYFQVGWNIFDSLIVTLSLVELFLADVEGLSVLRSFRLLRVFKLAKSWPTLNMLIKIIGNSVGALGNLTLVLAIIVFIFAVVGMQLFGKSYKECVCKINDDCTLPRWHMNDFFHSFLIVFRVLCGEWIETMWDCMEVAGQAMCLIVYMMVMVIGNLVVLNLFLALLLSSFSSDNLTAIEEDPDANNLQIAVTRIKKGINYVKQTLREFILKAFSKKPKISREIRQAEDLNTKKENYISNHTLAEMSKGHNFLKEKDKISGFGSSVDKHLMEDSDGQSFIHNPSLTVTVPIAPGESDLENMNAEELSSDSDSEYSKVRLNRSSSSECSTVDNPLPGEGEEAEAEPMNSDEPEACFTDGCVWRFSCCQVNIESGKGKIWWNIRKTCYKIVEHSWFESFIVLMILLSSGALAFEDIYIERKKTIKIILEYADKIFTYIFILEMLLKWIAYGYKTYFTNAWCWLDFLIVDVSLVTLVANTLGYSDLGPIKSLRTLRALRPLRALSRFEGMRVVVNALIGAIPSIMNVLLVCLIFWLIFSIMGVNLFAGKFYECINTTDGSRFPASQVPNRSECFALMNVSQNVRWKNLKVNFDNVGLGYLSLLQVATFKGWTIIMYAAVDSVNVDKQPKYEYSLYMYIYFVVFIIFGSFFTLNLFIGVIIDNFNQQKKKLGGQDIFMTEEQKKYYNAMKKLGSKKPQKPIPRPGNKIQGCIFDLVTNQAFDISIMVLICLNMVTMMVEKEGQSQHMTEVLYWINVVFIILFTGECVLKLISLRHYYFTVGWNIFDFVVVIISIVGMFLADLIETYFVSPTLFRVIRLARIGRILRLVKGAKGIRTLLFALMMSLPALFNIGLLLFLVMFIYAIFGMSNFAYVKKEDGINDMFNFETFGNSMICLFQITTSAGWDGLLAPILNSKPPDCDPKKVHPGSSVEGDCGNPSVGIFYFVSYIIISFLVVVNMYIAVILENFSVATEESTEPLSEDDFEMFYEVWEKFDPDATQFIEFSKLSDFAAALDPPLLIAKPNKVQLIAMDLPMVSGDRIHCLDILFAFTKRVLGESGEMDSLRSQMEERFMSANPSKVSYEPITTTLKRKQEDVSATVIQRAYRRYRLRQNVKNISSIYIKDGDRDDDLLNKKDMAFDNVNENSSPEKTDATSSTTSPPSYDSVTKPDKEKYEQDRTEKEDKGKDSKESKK

Compound	IC50 (Human Nav1.7) [nM]	Hu CYP3A4 mRNA Induction (10 uM POC) (CYP3A4) [%]
COc1cc([C@H]2C[C@H](C(F)(F)F)C2)c(F)cc1-n1c(=O)ccc2cc(S(=O)(=O)Nc3ncccn3)ccc21 (atropisomer, axis not shown; (P)) [Example 15, trans-(P)-1-(5-fluoro-2-methoxy-4-(3-(trifluoromethyl)cyclobutyl)phenyl)-2-oxo-N-(pyrimidin-2-yl)-1,2-dihydroquinoline-6-sulfonamide]	17	36
COc1cc(C2CCC2)c(Cl)cc1-n1c(=O)ccc2cc(S(=O)(=O)Nc3ncco3)ccc21 (atropisomer, axis not shown; (P)) [Example 32, (P)-1-(5-chloro-4-cyclobutyl-2-methoxyphenyl)-N-(oxazol-2-yl)-2-oxo-1,2-dihydroquinoline-6-sulfonamide]	10	88
COc1cc([C@H]2C[C@H](C(F)(F)F)C2)ccc1-n1c(=O)ccc2cc(S(=O)(=O)Nc3ccon3)ccc21 (atropisomer, axis not shown; (P)) [Example 35, trans-(P)—N-(isoxazol-3-yl)-1-(2-methoxy-4-(3-(trifluoromethyl)cyclobutyl)phenyl)-2-oxo-1,2-dihydroquinoline-6-sulfonamide]	20	–
COc1cc([C@H]2C[C@H](C(F)(F)F)C2)c(C)cc1-n1c(=O)ccc2cc(S(=O)(=O)Nc3ncccn3)ccc21 (atropisomer, axis not shown; (P)) [Example 37, trans-(P)-1-(2-methoxy-5-methyl-4-(3-(trifluoromethyl)cyclobutyl)phenyl)-2-oxo-N-(pyrimidin-2-yl)-1,2-dihydroquinoline-6-sulfonamide]	–	49.51
COc1cc([C@H]2C[C@H](C(F)(F)F)C2)ccc1-n1c(=O)ccc2cc(S(=O)(=O)Nc3cccnn3)ccc21 (atropisomer, axis not shown; (P)) [Example 38, trans-(P)-1-(2-methoxy-4-(3-(trifluoromethyl)cyclobutyl)phenyl)-2-oxo-N-(pyridazin-3-yl)-1,2-dihydroquinoline-6-sulfonamide]	21	–
COc1cc([C@H]2C[C@H](C(F)(F)F)C2)c(F)cc1-n1c(=O)ccc2cc(S(=O)(=O)Nc3ccon3)c(F)cc21 (atropisomer, axis not shown; (P)) [Example 40, (P)-7-fluoro-1-(5-fluoro-2-methoxy-4-((1R,3R)-3-(trifluoromethyl)cyclobutyl)phenyl)-N-(isoxazol-3-yl)-2-oxo-1,2-dihydroquinoline-6-sulfonamide]	5	–
COc1cc(C2CC(F)(F)C2)c(F)cc1-n1c(=O)ccc2cc(S(=O)(=O)Nc3ccon3)c(F)cc21 (atropisomer, axis not shown; (P)) [Example 41, (P)-1-(4-(3,3-difluorocyclobutyl)-5-fluoro-2-methoxyphenyl)-7-fluoro-N-(isoxazol-3-yl)-2-oxo-1,2-dihydroquinoline-6-sulfonamide]	11	–
COc1cc([C@H]2C[C@H](C(F)(F)F)C2)c(F)cc1-n1c(=O)ccc2c(F)c(S(=O)(=O)Nc3ccon3)ccc21 (atropisomer, axis not shown; (P)) [Example 46, trans-(P)-5-fluoro-1-(5-fluoro-2-methoxy-4-(3-(trifluoromethyl)cyclobutyl)phenyl)-N-(isoxazol-3-yl)-2-oxo-1,2-dihydroquinoline-6-sulfonamide]	8	6.6
COc1cc(C23CC(C(F)(F)F)(C2)C3)c(F)cc1-n1c(=O)ccc2cc(S(=O)(=O)Nc3ncccn3)ccc21 (atropisomer, axis not shown; (P)) [Example 47, (P)-1-(5-fluoro-2-methoxy-4-(3-(trifluoromethyl)bicyclo[1.1.1]pentan-1-yl)phenyl)-2-oxo-N-(pyrimidin-2-yl)-1,2-dihydroquinoline-6-sulfonamide]	8	–
COc1cc(C2CC(F)(F)C2)c(Cl)cc1-n1c(=O)ccc2cc(S(=O)(=O)Nc3ccon3)ccc21 (atropisomer, axis not shown; (P)) [Example 48, (P)-1-(5-chloro-4-(3,3-difluorocyclobutyl)-2-methoxyphenyl)-N-(isoxazol-3-yl)-2-oxo-1,2-dihydroquinoline-6-sulfonamide]	10	–
COc1cc(C2CC2)c(F)cc1-n1c(=O)ccc2cc(S(=O)(=O)Nc3ccon3)ccc21 [Compound X, 1-(4-cyclopropyl-5-fluoro-2-methoxyphenyl)-N-(isoxazol-3-yl)-2-oxo-1,2-dihydroquinoline-6-sulfonamide, reference compound]	48	–

The next lines start with the values.

IC50 (Human Nav1.7) [nM]	Hu CYP3A4 mRNA Induction (10 uM POC) (CYP3A4) [%]	Compound
28	–	COc1cc(C2CCC2)c(C)cc1-n1c(=O)ccc2cc(S(=O)(=O)Nc3ncco3)ccc21 (atropisomer, axis not shown; (P)) [Example 34, (P)-1-(4-cyclobutyl-2-methoxy-5-methylphenyl)-N-(oxazol-2-yl)-2-oxo-1,2-dihydroquinoline-6-sulfonamide]
14	–	COc1cc([C@H]2C[C@H](C(F)(F)F)C2)ccc1-n1c(=O)ccc2cc(S(=O)(=O)Nc3ncccn3)ccc21 (atropisomer, axis not shown; (P)) [Example 36, trans-(P)-1-(2-methoxy-4-((1R,3R)-3-(trifluoromethyl)cyclobutyl)phenyl)-2-oxo-N-(pyrimidin-2-yl)-1,2-dihydroquinoline-6-sulfonamide]
11	–	COc1cc([C@H]2C[C@H](C(F)(F)F)C2)c(F)cc1-n1c(=O)ccc2cc(S(=O)(=O)Nc3cccnn3)ccc21 (atropisomer, axis not shown; (P)) [Example 39, trans-(P)-1-(5-fluoro-2-methoxy-4-(3-(trifluoromethyl)cyclobutyl)phenyl)-2-oxo-N-(pyridazin-3-yl)-1,2-dihydroquinoline-6-sulfonamide]
6	–	COc1cc(C23CC(C(F)(F)F)(C2)C3)c(F)cc1-n1c(=O)ccc2cc(S(=O)(=O)Nc3ccon3)ccc21 (atropisomer, axis not shown; (P)) [Example 42, (P)-1-(5-fluoro-2-methoxy-4-(3-(trifluoromethyl)bicyclo[1.1.1]pentan-1-yl)phenyl)-N-(isoxazol-3-yl)-2-oxo-1,2-dihydroquinoline-6-sulfonamide]
7	–	COc1cc([C@H]2C[C@H](C(F)(F)F)C2)c(F)cc1-n1c(=O)ccc2cc(S(=O)(=O)Nc3ncco3)ccc21 (atropisomer, axis not shown; (P)) [Example 43, Trans-(P)-1-(5-Fluoro-2-Methoxy-4-(3-(Trifluoromethyl)Cyclobutyl)Phenyl)-N-(Oxazol-2-Yl)-2-Oxo-1,2-Dihydroquinoline-6-Sulfonamide]
10	–	COc1cc([C@H]2C[C@H](C(F)(F)F)C2)c(Cl)cc1-n1c(=O)ccc2cc(S(=O)(=O)Nc3ncco3)ccc21 (atropisomer, axis not shown; (P)) [Example 49, trans (P)-1-(5-chloro-2-methoxy-4-((1R,3R)-3-(trifluoromethyl)cyclobutyl)phenyl)-N-(oxazol-2-yl)-2-oxo-1,2-dihydroquinoline-6-sulfonamide]
8	–	COc1cc([C@H]2C[C@H](OC(F)(F)F)C2)c(F)cc1-n1c(=O)ccc2cc(S(=O)(=O)Nc3ccon3)ccc21 (single isomer, unassigned) [Example 45, trans-(P)-1-(5-fluoro-2-methoxy-4-(3-(trifluoromethoxy)cyclobutyl)phenyl)-N-(isoxazol-3-yl)-2-oxo-1,2-dihydroquinoline-6-sulfonamide]
